Data from ChEMBL document CHEMBL4266017, “Colony-wise Analysis of a Theonella swinhoei Marine Sponge with a Yellow Interior Permitted the Isolation of Theonellamide I” (J Nat Prod, 2018).

Test system: HeLa
Test: Cytotoxicity against human HeLa cells assessed as decrease in cell viability after 72 hrs by XTT assay
Format: functional, cell-based

`CC(/C=C/c1ccccc1)=C\[C@H](O)[C@@H]1CC(=O)N[C@@H](CO)C(=O)N[C@H]2C[n+]3cc(n([C@@H]4OC[C@H](O)[C@H](O)[C@H]4O)c3)C[C@H](NC(=O)CCC[C@@H](C(=O)[O-])NC(=O)[C@@H](O)CNC(=O)[C@H](Cc3ccc(Br)cc3)NC(=O)[C@H]([C@@H](O)C(N)=O)NC(=O)[C@H](CC(N)=O)NC2=O)C(=O)N[C@@H]([C@H](C)O)C(=O)N[C@@H](CO)C(=O)N[C@@H](Cc2ccccc2)C(=O)N1` was tested, and the IC50 was 1900 nM.
